Results published in patent US5606037A, “Processes antineoplastic heteronaphthoquinones” (BioChem Pharma Inc., priority 1995, dated 1997).

Key:
[1] = system: MCF-7; test: In vitro cytotoxicity, MCF-7; assay type: cell-based
Procedure: (§1) The microculture tetrazolium assay was used to test in vitro cytotoxicity. This assay is described in Plumb, J. A. et al., 1989 Cancer Research 49, 4435-4440, which is herein incorporated by reference. The cytotoxicity of compounds towards tumor cells is measured in vitro using the assay. This assay method is based upon the ability of live, but not dead cells to reduce the yellow water soluble dye 3-(4,5-dimethylthiazol-2-yl)-2,5-diphenyltetrazolium bromide (MTT) to its water insoluble purple formazan product.
(§2) Cells are plated out in 100 μl of culture medium in the microtiter plates at a density of around 1,500-4,000 cells per well. The plates are incubated overnight to allow the cells to become adherent after which the test compound is added (100 μl of appropriate dilution per well). The cells are incubated with test compound at 37° C. for 48 h after which the compound is replaced with fresh medium. After a further 48 h incubation at 37° C., 50 μl of MTT solution (2 mg/ml) is added to each well. The plates are incubated in the dark for 4 h at 37° C. after which the medium is removed. The MTT formazan product is extracted from the cells by the addition of 200 μl DMSO followed by 50 μl of Sorensen's buffer. The plates are shaken briefly and the absorbance at 570 nm is read using a Molecular Devices UV max plate reader. […]

[2] = system: MAT-B; test: In vitro cytotoxicity, MAT-B; assay type: cell-based; conditions: read-out: IC50 MAT-B
Procedure: as §1, §2

[3] = system: MCF-7/ADR; test: In vitro cytotoxicity, MCF-7/ADR; assay type: cell-based
Procedure: as §1, §2

[4] = system: MAT-B/ADR; test: In vitro cytotoxicity, MAT-B/ADR; assay type: cell-based; conditions: read-out: IC50 MAT-B/ADR
Procedure: as §1, §2

[5] = literature; cited from earlier work
[6] = literature; cited from earlier work; remark: listed apart in the source

COc1cccc2c1C(=O)c1c(O)c3c(c(O)c1C2=O)C[C@@](O)(C(=O)CO)C[C@@H]3O[C@H]1C[C@H](N)[C@H](O)[C@H](C)O1 [Adriamycin, reference compound]
IC50 ([1]; Homo sapiens, MCF7, read-out: IC50 MCF-7): 5 nM | IC50 [2]: 4.6 nM | IC50 ([3]; Homo sapiens, NCI/ADR-RES, read-out: IC50 MCF-7/ADR): 6.5 µM | IC50 [4]: 2500 nM

CC(=O)[C@H]1CC2=C(C(=O)c3ccccc3C2=O)[C@H](OC2C[C@H](NC(=O)C(F)(F)F)[C@H](O)[C@H](C)O2)O1 (stereo partly drawn) [BCH1146, (1'S,1S,3R)-Methyl (5,10-dioxo-1-(2',3',6'-trideoxy-3'-trifluoroacetamido-4'-hydroxy-L-lyxohexopyranose)-3,4,5,10-tetrahydronaphtho [2,3-C]pyran-3-yl) ketone]
potency relative to adriamycin ([1]; breast cancer, MCF-7): less potent than adriamycin | effect in sensitive versus adriamycin resistant cell line ([3]; breast cancer, MCF-7): nearly as effective in the sensitive and adriamycin resistant cell line

CC1O[C@H]2CC(=O)O[C@H]2C2=C1C(=O)c1c(O)c3c(c(O)c1C2=O)[C@H]1C[C@@H](O)[C@]3(O)[C@@H](C)O1 (stereo partly shown) [Granaticin]
antitumor activity [5]: reported to show antitumor activity

CC1OC2OC(=O)OC2C2=C1C(=O)c1c(O)cccc1C2=O (stereo not shown) [kalafungin]
antibacterial as well as antifungal activity [6]: potent antibacterial as well as antifungal activity

C[C@@H]1O[C@@H](CC(=O)O)CC2=C1C(=O)c1c(O)cccc1C2=O [nanaomycin A]
antibacterial as well as antifungal activity [6]: potent antibacterial as well as antifungal activity

COC(=O)C1CC2=C(C(=O)c3c(cc4ccccc4c3O)C2=O)C(O[C@H]2C[C@H](NC(=O)C(F)(F)F)[C@H](O)[C@H](C)O2)O1 (stereo partly shown) [pyranoanthraquinone (H)]
antitumor activity [5]: found to possess antitumor activity
